System: horse erythrocytes
Test: Hemolytic plate assay (erythrocyte lysis, decrease in absorbance)
Type: cell-based
Details: FIG. 1
Procedure: The HIV-1 proaerolysin variant generated in EXAMPLE 3 was incubated with varying concentrations of an HIV protease-containing sample in a microtiter plate (HIV-1 protease obtained from BACHEM, Torrance, Calif.). The HIV-1 proaerolysin variant (1.5×10^−6 M) was diluted 1:16 in PBS to a final volume of 100 μl and added to the first column of wells of a 96 well plate. Various concentrations of HIV-protease containing samples, ranging from 10 to 500 ng of HIV-1 protease in a final volume of 100 μl, were added to each of the 8 wells of the first column of the microtiter plate, and the plate incubated for four hours.
After incubation, the samples were serially diluted 1:2 by adding 100 μl of PBS to the first column of wells, mixing and transferring 100 μl sequentially to each of the wells in every row. Then, 100 μl of washed horse erythrocytes were added to all wells so that the final erythrocyte concentration was 0.4%. […]

Substance | absorbance (erythrocyte lysis) (HIV variant of proaerolysin activated with HIV protease, absorbance at 600 nm, listed as HIV variant of proaerolysin) | absorbance (erythrocyte lysis) (HIV variant of proaerolysin activated with HIV protease, absorbance at 600 nm, listed as proaerolysin variant) | absorbance (erythrocyte lysis) (native proaerolysin activated with trypsin)
HIV-1 proaerolysin variant: proaerolysin variant in which the normal activation sequence KVRRAR was replaced with the HIV-1 protease sensitive sequence QNYPIV | decrease in absorbance | lysis of the erythrocytes | –
native proaerolysin: precursor form of the aerolysin toxin, a 52 kDa protein produced by bacteria in the genus Aeromonas | – | – | decrease in absorbance
